Test results taken from the NIST ThermoML archive (doi:10.1021/je500065k).

Conditions: 101.33 kPa, Liquid; for electrical conductivity: the complex impedance method; for mass density: Vibrating tube method

CC[N+](C)(CC)CCOC.F[B-](F)(F)F
Conditions | electrical conductivity [S/m] | mass density [kg/m3] | viscosity [mPa·s]
263.15 K | 0.0055 | – | –
273.15 K | 0.0156 | – | –
283.15 K | 0.0381 | 1188.2 | 1350
288.15 K | – | 1184.8 | 890
293.15 K | 0.0821 | 1181.3 | 604
298.15 K | – | 1177.8 | 422
303.15 K | 0.153 | 1174.4 | 303
308.15 K | – | 1171 | 222
313.15 K | 0.262 | 1167.7 | 167
318.15 K | – | 1164.4 | 128
323.15 K | 0.414 | 1161.1 | 99.7
328.15 K | – | 1157.9 | 79.1
333.15 K | 0.612 | 1154.7 | 63.7
338.15 K | – | 1151.4 | 52
343.15 K | 0.857 | 1148.2 | 43
348.15 K | – | 1145 | 36
353.15 K | 1.16 | 1141.8 | 30.5

CC[N+](C)(CC)CCOC.O=S(=O)([N-]S(=O)(=O)C(F)(F)F)C(F)(F)F
Conditions | electrical conductivity [S/m] | mass density [kg/m3] | viscosity [mPa·s]
234.15 K | 0.00083 | – | –
243.15 K | 0.0033 | – | –
253.15 K | 0.0113 | – | –
263.15 K | 0.0301 | – | –
273.15 K | 0.0662 | – | –
283.15 K | 0.127 | 1420.6 | 166
288.15 K | – | 1416.1 | 123
293.15 K | 0.216 | 1411.5 | 92.7
298.15 K | – | 1406.9 | 71.8
303.15 K | 0.336 | 1402.3 | 56.8
308.15 K | – | 1397.7 | 45.7
313.15 K | 0.488 | 1393.2 | 37.4
318.15 K | – | 1388.6 | 31
323.15 K | 0.67 | 1384 | 26.1
328.15 K | – | 1379.5 | 22.2
333.15 K | 0.869 | 1375 | 19.1
338.15 K | – | 1370.5 | 16.6
343.15 K | 1.09 | 1366.1 | 14.5
348.15 K | – | 1361.7 | 12.8
353.15 K | 1.33 | 1357.3 | 11.4
